Assay [1] deals with T1, interaction of the PAS B domains of HIF-2α and HIF-1β (Homo sapiens, UniProt Q99814).
T1 construct: His6Gb1-TEV-GEFKGL-HIF2α (240-350aa)-G; His6 (N); Gb1 (protein G B1 domain) (N); TEV site (N)
Put plainly: AlphaScreen protein protein interaction assay. Format: biochemical. As to the method:
For the assessment of functional disruption of the interaction of the PAS B domains of HIF-2α and HIF-1β an AlphaScreen assay was set-up. The assay was performed in 384 well light gray Perkin Elmer microtiter plates in a total volume of 7 μl. […] The detection of the protein protein interaction was performed by adding AlphaLISA® Anti-FLAG Acceptor beads (fc 20 μg/mL) and AlphaScreen® Nickel Chelate Donor beads (fc 9 μg/mL) (both Perkin Elmer) and the reaction was incubated for 240 min at 23° C. in the dark. If donor and acceptor beads get in close proximity to each other caused by interaction of HIF2alpha PAS B with HIF-1ß PAS B domain it results in a luminescence signal at 615 nm after excitation at 680 nm. The PPI disruption activity of a compound was calculated directly from the loss in Alphascreen signal. The AlphaScreen signal was measured with an Envision multimode reader (Perkin Elmer LAS Germany GmbH). The control value used was the inhibitor-free reaction. The pharmacological zero value used was determined in the absence of HIF-1ß. The inhibitory values (IC50) were calculated using Assay analyser from GeneData.

Assay [2] has as its system HIF2α-HIF1β complex. Put plainly: Cellular mechanistic assay: 786-O HRE-luc2P reporter assay. Format: cell-based, human. As to the method:
This reporter assay was designed to monitor binding of the HIF2α-HIF1β complex to specific DNA fragment called hypoxia response element (HRE) in physiologically relevant cell line. […] HRE is present in promoters of various genes regulated by hypoxia inducible factors. […] As a result, this reporter assay allows monitoring of HIF2α-HIF1β activity by determining the activity of produced luciferase. Cell culture is performed in RPMI media supplemented with 10% FBS, Sodium Pyruvate, Penicillin/Streptomycin, Glutamine, 200 μg/mL Hygromycin Gold.
The assay was performed in 384 well white, opaque microtiterplate with transparent bottom (Greiner Bio-one, Frickenhausen). […] 50 μl of cell suspension (2000 cells) per well were dispensed in microtiter plates and incubated over night at 37° C. in a 5% CO2 incubator. Compounds were added with Labcyte Echo dispenser (fc 0.3% DMSO, 9 concentrations dilution raw starting at 30 μM). Plates were incubated for 48 h at 37° C. in a 5% CO2 incubator. After this 45 μl of prewarmed ONE-Glo™ EX Reagent were added per well. Plates were placed on an orbital shaker at 1200 rpm for 3 minutes. Plates were sealed and luminescence was measured a Tecan Spark 20M microplate reader (end-point measurement with 0.1 second reading time). Values were normalized to DMSO ctrl and wells without cells (only medium ctrl). Decrease in luminescence directly correlates with inhibition of HIF2α activity. EC50 values and % of effect values were calculated fitting a variable-slope sigmoidal function using Ryvu Therapeutics (formerly Selvita S.A.) DRC application or GraphPad Prism software.

The target of assay [3] is T2, HIF2a (240-350)-G (Homo sapiens, UniProt Q99814).
T2 construct: The protein, HIF2a (240-350)-G, was prepared by recombinant overexpression; made in house
Put plainly: ITC (isothermal titration calorimetry) binding. On the procedure:
ITC measurements were performed with a VP-ITC microcalorimeter from MicroCal/Malvern (UK). For all titration experiments the protein and the respective compounds were formulated in 30 mM HEPES buffer pH 7.5, 150 mM NaCl and 5 mM ß-mercaptoethanol. The protein, HIF2a (240-350)-G, was prepared by recombinant overexpression and multistep chromatography purification. Compounds were used from concentrated DMSO stock solutions. The final protein concentration in the injection syringe was 100 μM. Ligand stock solutions of 10 mM in DMSO were diluted to 10 μM concentrations with buffer and loaded into the sample cell. All buffers were adjusted to a final concentration of 1% (v/v) DMSO. Both, the titrate and titrant solutions were degassed prior to loading the calorimeter cell and injection syringe. […] The integrated heat data were fit with a one-site binding model to determine the apparent values for affinity, enthalpy and stoichiometry of binding.

[4] abbreviates: Homo sapiens, 786-0, 48 h, read-out: HRE-luc2P reporter assay IC50, 786-O HRE-luc2P cells, 48 h incubation, luciferase luminescence.
The mark [5] stands for this setting: read-out: HRE-luc2P reporter assay IC50, 786-O HRE-luc2P cells, 48 h incubation, luciferase luminescence.

Like-named read-outs stand apart in the source and are kept apart here. Bounds are passed on as bounds.

T2 sequence (Q99814 240-350): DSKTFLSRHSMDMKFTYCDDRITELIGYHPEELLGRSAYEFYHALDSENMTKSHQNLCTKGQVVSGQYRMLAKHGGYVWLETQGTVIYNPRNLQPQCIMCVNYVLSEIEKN
T1 sequence (Q99814 240-350): as above

Regarding `CS(=O)(=O)c1sc(Oc2ccc(F)c(F)c2)c2c1C(O)C(F)(F)C2` (racemic) [Example 24a, 1-(3,4-difluorophenoxy)-5,5-difluoro-3-methanesulfonyl-4H,5H,6H-cyclopenta[c]thiophen-4-ol], the IC50 in assay [1] and in assay [2] (setting [4]) was greater than 1000 nM throughout. The same compound gave a Kd in assay [3] greater than 1000 nM.
Consider `CC(Oc1sc(S(C)(=O)=O)c2c1CC(F)(F)[C@H]2O)C(F)F` (single isomer, unassigned) [Example 10a], for which the results for the IC50 in assay [1] and in assay [2] (setting [5]) were less than 50 nM and greater than 1000 nM, respectively.
As to `COC1(COc2sc(S(C)(=O)=O)c3c2CC(F)(F)[C@H]3O)CCC1` [Example 16a, (4S)-5,5-difluoro-3-methanesulfonyl-1-[(1-methoxycyclobutyl)methoxy]-4H,5H,6H-cyclopenta[c]thiophen-4-ol], the IC50 in assay [1] is less than 50 nM; in assay [2] (setting [4]) it was greater than 1000 nM. The same compound yielded a Kd in assay [3] of 100 to 1000 nM.
For `CC(Oc1sc(S(C)(=O)=O)c2c1CC(F)(F)[C@H]2O)C(F)F` (single isomer, unassigned) [Example 14a], the IC50 was less than 50 nM in assay [1] (read-out: AlphaScreen IC50, disruption of HIF-2α / HIF-1β (ARNT) PAS B interaction, recombinant proteins 143 nM each) and 50 to 1000 nM in assay [2] (setting [5]).
`CS(=O)(=O)c1sc(OC2CCOCC2)c2c1[C@H](O)C(F)(F)C2` [Example 22a, (4S)-5,5-difluoro-3-methanesulfonyl-1-(oxan-4-yloxy)-4H,5H,6H-cyclopenta[c]thiophen-4-ol] yielded an IC50 in assay [1] of less than 50 nM. Besides, the Kd in assay [3] lay in the range of 100 to 1000 nM.
Regarding `CS(=O)(=O)c1sc(Oc2cccc(C#N)c2)c2c1[C@H](O)C(F)(F)C2` [Example 31a, 3-{[(4S)-5,5-difluoro-4-hydroxy-3-methanesulfonyl-4H,5H,6H-cyclopenta[c]thiophen-1-yl]oxy}benzonitrile], the IC50 in assay [1] and in assay [2] (setting [4]) was greater than 1000 nM throughout. For the same compound, the Kd in assay [3] was greater than 1000 nM.
As to `CS(=O)(=O)c1sc(Oc2ccc(F)c(F)c2)c2c1[C@H](O)C(F)(F)C2` [Example 34a, (4S)-1-(3,4-difluorophenoxy)-5,5-difluoro-3-methanesulfonyl-4H,5H,6H-cyclopenta[c]thiophen-4-ol], the IC50 in assay [1] was 50 to 1000 nM; in assay [2] (setting [4]), greater than 1000 nM.
Take `CCC(Oc1sc(S(C)(=O)=O)c2c1CC(F)(F)[C@H]2O)C(F)(F)F` (single isomer, unassigned) [Example 9a]: the IC50 in assay [1] was less than 50 nM; in assay [2] (setting [4]), greater than 1000 nM. The dissociation constant Kd in assay [3] was 100 to 1000 nM.
The matching figures for `CS(=O)(=O)c1sc(Oc2ccc(F)cc2)c2c1[C@H](O)C(F)(F)C2` [Example 29a, (4S)-5,5-difluoro-1-(4-fluorophenoxy)-3-methanesulfonyl-4H,5H,6H-cyclopenta[c]thiophen-4-ol]: greater than 1000 nM, greater than 1000 nM and greater than 1000 nM.
The matching figures for `CS(=O)(=O)c1sc(Oc2cc(F)cc(Cl)c2)c2c1[C@H](O)C(F)(F)C2` [Example 30a, (4S)-1-(3-chloro-5-fluorophenoxy)-5,5-difluoro-3-methanesulfonyl-4H,5H,6H-cyclopenta[c]thiophen-4-ol]: greater than 1000 nM, greater than 1000 nM and greater than 1000 nM.
For the compound `CCOc1sc(S(C)(=O)=O)c2c1CC(F)(F)[C@H]2O` [Example 32a, (4S)-1-ethoxy-5,5-difluoro-3-methanesulfonyl-4H,5H,6H-cyclopenta[c]thiophen-4-ol], the IC50 in assay [1] and in assay [2] (setting [4]) was greater than 1000 nM in each case.
Regarding `CS(=O)(=O)c1sc(OCCOC(F)(F)F)c2c1[C@H](O)C(F)(F)C2` [Example 23a, (4S)-5,5-difluoro-3-methanesulfonyl-1-[2-(trifluoromethoxy)ethoxy]-4H,5H,6H-cyclopenta[c]thiophen-4-ol], the IC50 is less than 50 nM in assay [1] and greater than 1000 nM in assay [2] (setting [4]).
The matching figures for `CS(=O)(=O)c1sc(OCC(F)(F)F)c2c1[C@H](O)[C@@H](F)C2` [Example 17a, (4S,5S)-5-fluoro-3-methanesulfonyl-1-(2,2,2-trifluoroethoxy)-4H,5H,6H-cyclopenta[c]thiophen-4-ol]: less than 50 nM and 50 to 1000 nM.
